Test results published in patent US20050142634A1, “Novel modulator of non-genomic activity of nuclear receptors (mnar) and uses thereof” (Wyeth, priority 2001, published 2005).

Tests used:
[1] = tested on: ERα
Method: MNAR-Nuclear receptors interaction analysis was performed. […] Formed complexes were isolated using anti-FLAG sepharose beads, boiled in 2×SDS buffer and loaded on SDS gel.
With full-length flag-MNAR, we further evaluated whether MNAR interaction with estrogen receptors is affected by ER ligands. […] Formed complexes were isolated using anti-FLAG sepharose beads.

[2] = tested on: ERα; experiment: MNAR effect on ER-mediated transcription, 2xERE-tk-luciferase reporter in HepG2 cells; format: cell-based; settings: for MNAR stimulation of ER activity with ligand / effect of kinase inhibitor on MNAR stimulation of ER activity / effect of Src inhibitor on MNAR stimulation of E2 induced ERα activity: HepG2, ERα and MNAR; for MNAR stimulation of ER activity with ligand: ligand at 10 nM; for effect of kinase inhibitor on MNAR stimulation of ER activity: 10 nM E2 plus 1 μM inhibitor; for effect of Src inhibitor on MNAR stimulation of E2 induced ERα activity: treated for 24 hr with 17β-estradiol and inhibitor
Method: Transient Transfection Analysis: HepG2 and COS-7 cells were routinely maintained in DMEM supplemented with 10% FBS. Either 50,000 cells per well of HepG2 or 30,000 per well of COS-7 were seeded in 96 well plates in DMEM without phenol red supplemented with 10% charcoal stripped serum. 100 ng of 2×ERE-tk-Luc reporter, 10 ng of pCMV-O-gal internal control, either 1 ng of pcDNA3.1 ERα or 5 ng of pcDNA3.1 ERβ expression vector with or without increasing amount of pcDNA3.1 MNAR or pcDNA3.1 SRC3 expression plasmids were transfected using 0.5 ul of lipofectamine 2000 (Life Technologies, Rockville, Md.) according to protocol. Cells were stimulated either with 10^−8M 17-b-estradiol, tamoxifen, or ICI for 24 hr before being processed for luciferase and β-Galactosidase activity.
(§1) A—HepG2 cells were transfected with expression plasmids for ERα, MNAR and/or SRC3. […] B—HepG2 cells were transfected with expression vectors for ERαand MNAR. […] (SEQ ID NO: 11) from Sequitur, Inc. (Natick, Mass.) or reverse control (C) oligomers complexed with 1 μg/ml of Lipofectamine 2000 in white media.
To evaluate if MNAR overexpression affects transcriptional activity of ER, HepG2 cells were transiently cotransfected with plasmids for expression of ERα and MNAR.

[3] = tested on: cSrc; experiment: Kinase reaction on immunoprecipitates from MCF-7 cells ([32P]γATP); format: cell-based, human; settings: material coprecipitated with anti-Src and anti-ER antibodies from MCF-7 cells, E2 10 nM 5 minutes
Method: FLAG-MNAR (panel A), cSrc (panel B), or ERα (panels C, D and E) were immunoprecipitated from the cell extracts using corresponding antibodies. Immunoprecipitates were incubated with [32P]γATP for 30 minutes at 30° C. (panels A-C), or with [32P]-γATP and enolase (panel D). Kinase reaction was stopped by boiling in 2×SDS buffer. Phosphorylated material was loaded on SDS gel, which was then dried and subjected to autoradiography.
We evaluated whether MNAR and ER interacted and activated Src kinase in MCF-7 cells. […] Flag-MNAR (FIG. 10, panel A), ERα (FIG. 10, panel C and D), and csrc (FIG. 10, panel B) were immunoprecipitated from the cell extracts using their corresponding antibodies. […] Immunoprecipitates were incubated with [32P]γATP at 30° C. for 30 minutes. Reaction was stopped by boiling in 2×SDS buffer and resolved on a SDS PMG.

[4] = tested on: cSrc; settings: ERα with MNAR and cSrc, 1 μM E2, compared to unliganded ERα
Description: ER-MNAR-cSrc Interaction Analysis. […] Formed complexes were isolate by pulled-down with anti-cSrc or anti-Lck antibodies and protein A agarose, boiled in 2×SDS buffer and resolved on an SDS-PAGE gel. Gel was dried and subjected to autoradiography.
To address this question, we have used in vitro transcribed/translated estrogen receptors ERα, ERβ and MNAR. […] Formed complexes were pulled-down with anti-cSrc or anti-Lck antibodies and protein A sepharose and then resolved on an SDS gel.

[5] = tested on: Erk 1 and 2; experiment: E2 induced Erk kinase 1 and 2 activation in MCF7 cells (Western blotting); format: cell-based, human; settings: for level of total Erk 1 and 2: Erk1/2 antibodies; for effect on E2 induced Erk 1 and 2 activation: MCF7 cells overexpressing MNAR or treated with 100 nM antisense, 10 nM E2 5 minutes
Description: (§2) It has been previously reported that activation of Src by estradiol triggers Ras/Erks kinase pathway. We expected that MNAR induced Src activation may lead to activation of Erk kinases 1 and 2. […] MNAR antisense oligonucleotide (SEQ ID NO:11) was developed at Sequitur Inc. (Natick, Mass.).

[6] = tested on: MNAR; experiment: MNAR expression in MCF-7 cells (TaqMan, Western blotting); format: cell-based, human
Method: as §1, with “MNAR. […] C—MCF-7 cells were transfected with 100 nM antisense (AS)” for “MNAR.”, “media. […] MNAR antiserum was generated against […] peptide encoding amino acids 509-520 ([…]) (SEQ ID NO: 31) of the MNAR.” for “media.”
as §2
(§3) We next used an antisense approach to assess MNAR's role in estrogen regulation of gene transcription. […] MCF-7 cells were transfected with 100 nM antisense or reverse control oligomers. […] TaqMan analysis was performed using a primer/probe set designed to target MNAR, pS2 and Cathepsin D—two genes known to be regulated by estrogens in MCF-7 cells. FIG. 9C presents the levels of MNAR, pS2 and Cathepsin D mRNA expression, normalized to GAPDH mRNA.

[7] = tested on: pS2; experiment: ER-mediated gene expression in MCF-7 cells (TaqMan); format: cell-based, human; settings: 100 nM antisense
Method: as §1, with “MNAR. […] C—MCF-7 cells were transfected with 100 nM antisense (AS)” for “MNAR.”, “media. […] MNAR antiserum was generated against […] peptide encoding amino acids 509-520 ([…]) (SEQ ID NO: 31) of the MNAR.” for “media.”
as §3

[8] = tested on: Cathepsin D; experiment: as above; format: cell-based, human; settings: 100 nM antisense
Method: as §1, with “MNAR. […] C—MCF-7 cells were transfected with 100 nM antisense (AS)” for “MNAR.”, “media. […] MNAR antiserum was generated against […] peptide encoding amino acids 509-520 ([…]) (SEQ ID NO: 31) of the MNAR.” for “media.”
as §3

[9] = tested on: cSrc; experiment: Analysis of cSrc enzymatic activity with acidified enolase as substrate; format: biochemical; settings: acid denatured enolase as substrate
Method: Analysis of cSrc Enzymatic Activity. […] Before reaction proteins were incubated for 1 hr at 4° C. Phosporylation reaction was started by addition of [32P]-γATP and continued at 30° C. for 10 min. Reaction was stopped by addition of 2×SDS buffer. Phosphorylated proteins were separated by SDS-PAGE and the dried gel was subjected to autoradiography.

[10] = tested on: ER; experiment: MNAR structural-functional analysis, ER-stimulated transcription in HepG2 cells; format: cell-based; settings: MNAR deletion mutants transfected into HepG2 cells
Method: To delineate the regions of MNAR that are responsible for interaction with estrogen receptor and c-Src tyrosine kinase, we performed functional evaluation of MNAR deletion mutants (FIG. 12). A series of C-terminal truncations of MNAR was generated using specially designed oligonucleotides, by amplifying appropriate fragments and cloning them into appropriate expression vectors. These mutants were tested for their abilities to enhance ER-stimulated transcription when transfected into HepG2 cells.
At the C-terminus, MNAR contains a region rich in both proline and glutamic acid. To delineate the regions on MNAR responsible for interaction with estrogen receptors and c-src tyrosine kinase, a functional evaluation of MNAR deletion mutants was performed (FIG. 12). A series of C-terminal truncations of MNAR was generated using specially designed oligonucleotides, by amplifying appropriate fragments and cloning them into appropriate expression vectors. These mutants were tested for their abilities to enhance ER-stimulated transcription when transfected into HepG2 cells.

CC/C(=C(\c1ccc(O)cc1)c1ccc(OCCN(C)C)cc1)c1ccccc1 [4(OH) tamoxifen]
ERα interaction with MNAR [1]: inhibited
MNAR stimulation of ER activity with ligand [2]: do not support MNAR stimulation of ER activity

C[C@]12CC[C@@H]3c4ccc(O)cc4CC[C@H]3[C@@H]1CC[C@@H]2O [E2, 17β-estradiol, reference compound]
phosphorylation of endogenous protein of approximately 34 kDa [3]: stimulated
Src-ER-MNAR complex formation [4]: significant stimulation
Erk 1 and 2 phosphorylation ([5]; MCF7 cells, 10 nM E2 for 5 minutes): Strong E2 induced stimulation
level of total Erk 1 and 2 ([5]; MCF7 cells): Neither treatment with MNAR antisense oligonucleotides nor short treatment with E2 affected
MNAR mRNA expression ([6]; MCF-7 cells, 10 nM E2 24 hours, normalized to GAPDH mRNA): substantially stimulated

C[C@]12CC[C@@H]3c4ccc(O)cc4C[C@@H](CCCCCCCCC[S+]([O-])CCCC(F)(F)C(F)(F)F)[C@H]3[C@@H]1CC[C@@H]2O (stereo partly drawn) [ICI 182,780]
MNAR stimulation of ER activity with ligand [2]: do not support MNAR stimulation of ER activity

COc1cccc(-c2cc(=O)c3ccccc3o2)c1N [PD98059]
effect of kinase inhibitor on MNAR stimulation of ER activity [2]: abrogate MNAR stimulation of ER activity

CC(C)(C)n1nc(-c2ccc(Cl)cc2)c2c(N)ncnc21 [PP2]
effect of kinase inhibitor on MNAR stimulation of ER activity [2]: abrogate MNAR stimulation of ER activity
effect of Src inhibitor on MNAR stimulation of E2 induced ERα activity [2]: inhibited MNAR stimulation

O=c1c(-c2ccc(O)cc2)coc2cc(O)cc(O)c12 [genesteine, genistein]
effect of Src inhibitor on MNAR stimulation of E2 induced ERα activity [2]: inhibited MNAR stimulation

MNAR antisense oligonucleotides: antisense (AS) CATGGAGATGTCCCGGAACAGTGCA (SEQ ID NO: 11) from Sequitur, Inc., targets MNAR (listed as DNA, chemistry not given here; listed as Homo sapiens)
effect on E2 induced Erk 1 and 2 activation [5]: attenuated
level of total Erk 1 and 2 ([5]; MCF7 cells): Neither treatment with MNAR antisense oligonucleotides nor short treatment with E2 affected
MNAR level ([6]; MCF7 cells, 100 nM antisense, Western blotting with MNAR antibodies): attenuated
MNAR expression ([6]; MCF-7 cells, 100 nM antisense, TaqMan and Western Blotting): significantly inhibited
basal level of pS2 expression [7]: did not significantly affect
E2-stimulated pS2 expression ([7]; 10 nM E2): dramatic reduction
basal level of Cathepsin D expression [8]: did not significantly affect
E2-stimulated Cathepsin D expression ([8]; 10 nM E2): dramatic reduction

MNAR: novel ER interacting protein, 1130 amino acids, cloned from MCF-7 cells
phosphorylation of endogenous protein of approximately 34 kDa [3]: dramatically augmented
effect on E2 induced Erk 1 and 2 activation [5]: significantly enhanced
ERα transcriptional activity on overexpression ([2]; HepG2 cells transfected with expression plasmid, 2xERE-tk-reporter): stimulation of ERα transcriptional activity
cSrc enzymatic activity [9]: strongly stimulates

mutant 2: MNAR mutant containing aa 1-469
ability to enhance ER-stimulated transcription [10]: still able to augment ER transcriptional activity

mutant 3: MNAR mutant containing aa 1-278
ability to enhance ER-stimulated transcription [10]: still able to augment ER transcriptional activity

mutant 4: MNAR mutant containing aa 1-189
ability to enhance ER-stimulated transcription [10]: still able to augment ER transcriptional activity
